Source: patent US8778982B2, “Synergistic microbicidal compositions” (Rohm and Haas Company, priority 2007, dated 2014)
“And” between values parts separate entries of the source, which are not always exact repeats. Equal values may be shown once. Read-outs that look alike come from different tables or passages of the source.

Key:
Type in all cases: cell-based
[1] = tested on: Candida albicans (C. albicans—ATCC 10231); assay: Synergy test, microtiter plate high resolution MIC assay, PDB medium, yeast; conditions: for Qb: B alone where Qa = 0; for MIC: Candida albicans
Text: (§1) One measure of synergism is the industrially accepted method described by Kull, F. C.; Eisman, P. C.; Sylwestrowicz, H. D. and Mayer, R. L., in Applied Microbiology 9:538-541 (1961), using the ratio determined by the formula: Qa/QA+Qb/QB=Synergy Index(“SI”) wherein: • QA=concentration of compound A (first component) in ppm, acting alone, which produced an end point (MIC of Compound A). • Qa=concentration of compound A in ppm, in the mixture, which produced an end point. • QB=concentration of compound B (second component) in ppm, acting alone, which produced an end point (MIC of Compound B). • Qb=concentration of compound B in ppm, in the mixture, which produced an end point.
(§2) When the sum of Qa/QA and Qb/QB is greater than one, antagonism is indicated. […] The lower the SI, the greater is the synergy shown by that particular mixture. The minimum inhibitory concentration (MIC) of a microbicide is the lowest concentration tested under a specific set of conditions that prevents the growth of the tested microorganisms.
(§3) Synergy tests were conducted using standard microtiter plate assays with media designed for optimal growth of the test microorganism. Minimal salt medium supplemented with 0.2% glucose and 0.1% yeast extract (M9GY medium) was used for testing bacteria; Potato Dextrose Broth (PDB medium) was used for testing yeast and mold. In this method, a wide range of combinations of microbicides and other personal care raw materials was tested by conducting high resolution MIC assays in the presence of various concentrations of CMIT/MIT, MIT, or BIT. High resolution MICs were determined by adding varying amounts of microbicide to one column of a microtitre plate and doing subsequent […] dilutions using an automated liquid handling system to obtain a series of endpoints ranging from 2 ppm to 10,000 ppm active ingredient.
(§4) The synergy of the combinations of the present invention was determined against a bacterium, Escherichia coli (E. coli—ATCC #8739), a yeast, Candida albicans (C. albicans—ATCC 10231), and a mold, Aspergillus niger (A. niger—ATCC 16404). The bacteria were used at a concentration of about 5×10^6 bacteria per mL and the yeast and mold at 5×10^5 fungi per mL. These microorganisms are representative of natural contaminants in many consumer and industrial applications. […] (yeast and mold) or 30° C. (bacteria).

[2] = tested on: Escherichia coli (E. coli—ATCC #8739); assay: Synergy test, microtiter plate high resolution MIC assay, M9GY medium, bacterium; conditions: for Qb: B alone where Qa = 0; for MIC: Escherichia coli
Text: as §1, §2, §3, §4

[3] = tested on: Aspergillus niger (A. niger—ATCC 16404); assay: Synergy test, microtiter plate high resolution MIC assay, PDB medium, mold; conditions: for Qb: B alone where Qa = 0; for MIC: Aspergillus niger
Text: as §1, §2, §3, §4

[4] = C. albicans 10231 - PDB (6 days), A = MIT, B = Myristamidopropyl PG-dimonium chloride phosphate
[5] = E. coli 8739 - M9GY (1 day), A = MIT, B = Myristamidopropyl PG-dimonium chloride phosphate
[6] = A. niger 16404 - PDB (3 days), A = MIT, B = Myristamidopropyl PG-dimonium chloride phosphate
[7] = C. albicans 10231 - PDB (6 days), A = BIT, B = Caprylic acid
[8] = E. coli 8739 - M9GY (1 day), A = BIT, B = Caprylic acid
[9] = A. niger 16404 - PDB (3 days), A = BIT, B = Caprylic acid
[10] = ATCC8739, 48 h, E. coli 8739, M9GY, 2 days, 30° C., read-out: MIC of the component acting alone (QA or QB)
[11] = ATCC16404, 72 h, A. niger 16404, PDB, 3 days, 25° C., read-out: MIC of the component acting alone (QA or QB)
[12] = C. albicans 10231 - PDB (6 days), A = MIT, B = Ethylhexylglycerin
[13] = ATCC10231, 24 h, read-out: MIC of the component acting alone (QA or QB)
[14] = E. coli 8739 - M9GY (6 days), A = MIT, B = Ethylhexylglycerin
[15] = ATCC8739, 24 h, read-out: MIC of the component acting alone (QA or QB)
[16] = A. niger 16404 - PDB (10 days), A = MIT, B = Ethylhexylglycerin
[17] = ATCC16404, 72 h, read-out: MIC of the component acting alone (QA or QB)

1-propanaminium, 3,3′,3″-[phosphinylidynetris(oxy)]-tris-[N-(aminopropyl)-2-hydroxy-N,N-dimethyl-N,N′,N″-tri-C6-18 acyl deriv. trichlorides
Synergy Index (SI) = Qa/QA+Qb/QB ([1]; C. albicans 10231, PDB, 1 day): 1.00
MIC of the component acting alone (QA or QB) ([1]; C. albicans 10231, PDB, 1 day, 25° C.): 800 ppm
MIC of the component acting alone (Qa or Qb with the other component at 0) ([1]; C. albicans 10231, PDB, 2 days): 2000 ppm
SI (synergy index) ([1]; C. albicans 10231, PDB, 2 days): 1.00
SI [1, 4]: 1.00
Qb [1, 4]: 1000 ppm
MIC of the component acting alone (Qa or Qb with the other component at 0) ([2]; E. coli 8739, M9GY, 1 day): 80 ppm
SI (synergy index) ([2]; E. coli 8739, M9GY, 1 day): 1.00
Synergy Index (SI) = Qa/QA+Qb/QB ([2]; E. coli 8739, M9GY, 2 days): 1.00
MIC of the component acting alone (QA or QB) ([2]; E. coli 8739, M9GY, 2 days, 30° C.): 100 ppm
SI [2, 5]: 1.00
Qb [2, 5]: 80 ppm
Synergy Index (SI) = Qa/QA+Qb/QB ([3]; A. niger 16404, PDB, 3 days): 1.00
MIC of the component acting alone (QA or QB) ([3]; A. niger 16404, PDB, 3 days, 25° C.): 2000 ppm
MIC of the component acting alone (Qa or Qb with the other component at 0) ([3]; A. niger 16404, PDB, 4 days): 2000 ppm
SI (synergy index) ([3]; A. niger 16404, PDB, 4 days): 1.00
SI [3, 6]: 1.00
Qb [3, 6]: 2000 ppm

O=c1[nH]sc2ccccc12 [BIT, 1,2-benzisothiazolin-3-one]
MIC of the component acting alone (Qa or Qb with the other component at 0) ([1]; C. albicans 10231, PDB, 1 day): 15.00 ppm
SI (synergy index) ([1]; C. albicans 10231, PDB, 1 day): 1.00
MIC of the component acting alone (Qa or Qb with the other component at 0) ([1]; C. albicans 10231, PDB, 2 days): 30.00 ppm
SI (synergy index) ([1]; C. albicans 10231, PDB, 2 days): 1.00
MIC of the component acting alone (Qa or Qb with the other component at 0) ([1]; C. albicans 10231, PDB, 6 days): 30.00 ppm and 40.00 ppm
SI (synergy index) ([1]; C. albicans 10231, PDB, 6 days): 1.00
SI [1, 7]: 1.00
Qa ([1]; C. albicans 10231 - PDB (6 days), A = BIT, B = Caprylic acid, A alone where Qb = 0): 20 ppm
MIC of the component acting alone (Qa or Qb with the other component at 0) ([2]; E. coli 8739, M9GY, 1 day): 20.00 ppm
SI (synergy index) ([2]; E. coli 8739, M9GY, 1 day): 1.00
MIC of the component acting alone (Qa or Qb with the other component at 0) ([2]; E. coli 8739, M9GY, 2 days): 20.00 ppm
SI (synergy index) ([2]; E. coli 8739, M9GY, 2 days): 1.00
SI [2, 8]: 1.00
Qa ([2]; E. coli 8739 - M9GY (1 day), A = BIT, B = Caprylic acid, A alone where Qb = 0): 20 ppm
MIC of the component acting alone (Qa or Qb with the other component at 0) ([3]; A. niger 16404, PDB, 3 days): 50 ppm
SI (synergy index) ([3]; A. niger 16404, PDB, 3 days): 1.00
MIC of the component acting alone (Qa or Qb with the other component at 0) ([3]; A. niger 16404, PDB, 4 days): 50 ppm
SI (synergy index) ([3]; A. niger 16404, PDB, 4 days): 1.00
MIC of the component acting alone (Qa or Qb with the other component at 0) ([3]; A. niger 16404, PDB, 10 days): 100.00 ppm
SI (synergy index) ([3]; A. niger 16404, PDB, 10 days): 1.00
SI [3, 9]: 1.00
Qa ([3]; A. niger 16404 - PDB (3 days), A = BIT, B = Caprylic acid, A alone where Qb = 0): 50 ppm

CCCCCCCC(=O)O [Caprylic acid, octanoic acid]
Synergy Index (SI) = Qa/QA+Qb/QB ([1]; C. albicans 10231, PDB, 6 days): 1.00
SI [1, 7]: 1.00
Qb [1, 7]: 2000 ppm
MIC ([1]; ATCC10231, 144 h, C. albicans 10231, PDB, 6 days, 25° C., read-out: MIC of the component acting alone (QA or QB)): 2000 µg/mL
Synergy Index (SI) = Qa/QA+Qb/QB ([2]; E. coli 8739, M9GY, 1 day): 1.00
Synergy Index (SI) = Qa/QA+Qb/QB ([2]; E. coli 8739, M9GY, 2 days): 1.00
SI [2, 8]: 1.00
Qb [2, 8]: 8000 ppm
MIC ([2]; ATCC8739, 24 h, E. coli 8739, M9GY, 1 day, 30° C., read-out: MIC of the component acting alone (QA or QB)): 8000 µg/mL
MIC [2, 10]: 8000 µg/mL
Synergy Index (SI) = Qa/QA+Qb/QB ([3]; A. niger 16404, PDB, 3 days): 1.00
Synergy Index (SI) = Qa/QA+Qb/QB ([3]; A. niger 16404, PDB, 10 days): 1.00
SI [3, 9]: 1.00
Qb [3, 9]: 2000 ppm
MIC [3, 11]: 2000 µg/mL
MIC ([3]; ATCC16404, 240 h, A. niger 16404, PDB, 10 days, 25° C., read-out: MIC of the component acting alone (QA or QB)): 2000 µg/mL

CCCCCCC(O)CO (stereo not drawn) [Caprylyl glycol, 1,2-octanediol]
Synergy Index (SI) = Qa/QA+Qb/QB ([1]; C. albicans 10231, PDB, 1 day): 1.00
MIC ([1]; ATCC10231, 24 h, C. albicans 10231, PDB, 1 day, 25° C., read-out: MIC of the component acting alone (QA or QB)): 3000 µg/mL
Synergy Index (SI) = Qa/QA+Qb/QB ([2]; E. coli 8739, M9GY, 2 days): 1.00
MIC [2, 10]: 2000 µg/mL
Synergy Index (SI) = Qa/QA+Qb/QB ([3]; A. niger 16404, PDB, 3 days): 1.00
MIC [3, 11]: 3000 µg/mL

CCCCC(CC)COCC(O)CO (stereo not drawn) [Ehylhexylglycerin]
MIC of the component acting alone (Qa or Qb with the other component at 0) ([1]; C. albicans 10231, PDB, 6 days): 10000 ppm
SI (synergy index) ([1]; C. albicans 10231, PDB, 6 days): 1.00
MIC of the component acting alone (Qa or Qb with the other component at 0) ([2]; E. coli 8739, M9GY, 2 days): 3000 ppm
SI (synergy index) ([2]; E. coli 8739, M9GY, 2 days): 1.00
MIC of the component acting alone (Qa or Qb with the other component at 0) ([3]; A. niger 16404, PDB, 3 days): 2000 ppm
SI (synergy index) ([3]; A. niger 16404, PDB, 3 days): 1.00

CCCCC(CC)COCC(O)CO (stereo not drawn) [Ethylhexylglycerin, 3-[(2-ethylhexyl)oxy]-1,2propanediol]
Synergy Index (SI) = Qa/QA+Qb/QB ([1]; C. albicans 10231, PDB, 1 day): 1.00
SI [1, 12]: 1.00
Qb [1, 12]: 2000 ppm
MIC [1, 13]: 2000 µg/mL
Synergy Index (SI) = Qa/QA+Qb/QB ([2]; E. coli 8739, M9GY, 1 day): 1.00
SI [2, 14]: 1.00
Qb [2, 14]: 3000 ppm
MIC [2, 15]: 3000 µg/mL
Synergy Index (SI) = Qa/QA+Qb/QB ([3]; A. niger 16404, PDB, 3 days): 1.00
SI [3, 16]: 1.00
Qb [3, 16]: 2000 ppm
MIC [3, 17]: 2000 µg/mL

CCCCCCCCCCCC(=O)OCC(O)CO (stereo not drawn) [Glycerol monolaurate]
Synergy Index (SI) = Qa/QA+Qb/QB ([1]; C. albicans 10231, PDB, 1 day): 1.00
SI (synergy index) ([1]; C. albicans 10231, PDB, 6 days): 1.00
Synergy Index (SI) = Qa/QA+Qb/QB ([1]; C. albicans 10231, PDB, 6 days): 1.00
MIC [1, 13]: 20000 µg/mL
MIC ([1]; ATCC10231, 144 h, read-out: MIC of the component acting alone (QA or QB)): 20000 µg/mL
MIC ([1]; ATCC10231, 144 h, read-out: MIC of the component acting alone (Qa or Qb with the other component at 0)): 20000 µg/mL
SI (synergy index) ([2]; E. coli 8739, M9GY, 1 day): 1.00
Synergy Index (SI) = Qa/QA+Qb/QB ([2]; E. coli 8739, M9GY, 1 day): 1.00
MIC [2, 15]: 20000 µg/mL
MIC ([2]; ATCC8739, 24 h, read-out: MIC of the component acting alone (Qa or Qb with the other component at 0)): 20000 µg/mL
Synergy Index (SI) = Qa/QA+Qb/QB ([3]; A. niger 16404, PDB, 3 days): 1.00
SI (synergy index) ([3]; A. niger 16404, PDB, 10 days): 1.00
Synergy Index (SI) = Qa/QA+Qb/QB ([3]; A. niger 16404, PDB, 10 days): 1.00
MIC [3, 17]: 20000 µg/mL
MIC ([3]; ATCC16404, 240 h, read-out: MIC of the component acting alone (QA or QB)): 20000 µg/mL
MIC ([3]; ATCC16404, 240 h, read-out: MIC of the component acting alone (Qa or Qb with the other component at 0)): 20000 µg/mL
